Assays:
[1] = TP_TRANSPORTER: drug resistance (paclitaxel) in MES-SA/DX5 cells
[2] = TP_TRANSPORTER: drug resistance (paclitaxel) in HCT15/CL02 cells

SMILES | IC50 [1] [µM] | IC50 [2] [µM]
COc1ccc(CCN(C)CCC[C@@]2(C#N)CCc3c2ccc(OC)c3OC)cc1OC | 6.63 | 3.04
COc1ccc(CCN(C)CCC[C@]2(C#N)CCc3c2ccc(OC)c3OC)cc1OC | 7.65 | 3.11

Source: BindingDB's records for doi:10.1097/00001813-200302000-00012 (Korea Research Institute of Chemical Technology, 2003)
